In patent EP0271829A2, “Delta-hydroxy-beta-lysine derivatives and their production” (Takeda Chemical Industries, Ltd., priority 1986, dated 1988):
Values after ≈ are worked out from the molar mass of the structure shown.

Legend:
[1] = tested on: S. aureus 308A-1; experiment: Antibacterial activity in mice, s.c. (ED50); assay type: in vivo; conditions: Staphylococcus aureus, 308A1, sc
Description: (§1) Thus obtained Compound (I) is useful as medicines, for example, antibiotics against certain types of gram-positive and gram-negative beacteria. [table] [table]

[2] = tested on: S. aureus 308A-1; experiment: Antibacterial activity against gram-positive bacteria (MIC on Tripticase Soy Agar); assay type: cell-based; conditions: Staphylococcus aureus, 308A1, Medium: Tripticase Soy Agar, Inoculum size: 10^8 cfu/ml
Description: as §1

SMILES | ED50 [1] | MIC [2]
C/C=C\C=C\C(=O)NCC(O)CC(CC(=O)NCCC(=N)N)NC (stereo not shown) [Compound 80] | 9.64 mg/kg | > 100 µg/mL
C=C/C=C/C(=O)NCC(O)CC(N)CC(=O)NCCC(=N)N (stereo not shown) [Compound 38b] | 6.25 mg/kg | 100 µg/mL (≈ 321 µM)
CN(CC(=O)O)NC(=O)C[C@H](N)C[C@@H](O)CN [Negamycin, 2-(3R,5R)-3,6-diamino-5-hydroxyhexanoyl-1-methylhydrazinoacetic acid, reference compound] | 38.6 mg/kg | > 100 µg/mL
C/C=C\C=C\C(=O)NCC(O)CC(CC(=O)NCCC(=N)N)NCC (stereo not shown) [Compound 82] | 25 mg/kg | > 100 µg/mL
C/C=C\C=C\C(=O)NCC(O)CC(CC(=O)NCCC(=N)N)NC(=O)C(N)CCCCC(=O)OC (stereo not shown) [Compound 86b] | 25 mg/kg | > 100 µg/mL
